Measured values published in US6444684B1 (priority 1993, dated 2002).
Where two headings read alike, the source gives them in different places.

Assays:
ras oncogene p21 protein = settings: U.S. Pat. No. 5,158,960; Liu et al.; cited from earlier work
[1] = found by other investigators; cited from earlier work
Breast Cancer cell lines = assay: NCI in vitro anticancer screen (SRB), breast cancer subpanel; settings: 48 hours exposure; average percent growth over the cell lines
Protocol: (§1) Compounds chosen for the program are initially tested in an in vitro anticancer screen. A total of fifty-five human tumor cell lines, derived from nine cancer types (lung, colon, melanoma, renal, ovarian, brain, prostate, breast and leukemia), are used in this screen. The tumor cells are inoculated over a series of standard 96-well microtiter plates on day 0. These cells are then preincubated on the microtiter plates for 24 hours. The test compounds are added to the wells in five 10-fold dilutions starting from the highest soluble concentration. Each compound is tested against every cell line in the panel. The compounds are incubated for 48 hours with the tumor cell lines. At the termination of the assay, the cells are fixed in situ, washed, and dried. Sulforhodamine B (SRB), a pink anionic dye that binds to the basic amino acids of trichloroacetic acid-fixed cells, is added. The cells are washed again, and the remaining dye is a function of the adherent cell mass. The bound stain is solubilized and measured spectrophotometrically. The data are entered from automatic reading devices into a computer for subsequent storage and analysis.
(§2) The measured effect of each test compound on the cell lines is calculated according to one or the other of the following two expressions:
(§3) If (Mean ODtest−Mean ODtzero)□0, then PG=100×(Mean ODtest−Mean ODtzero)/(Mean ODctrl−Mean ODtzero);
(§4) If (Mean ODtest−Mean ODtzero)<0, then PG=100×(Mean ODtest−Mean ODtzero)/Meantzero;

[2] = test system: K/1 = ras^K Transformed NRKE Cells; settings: for Differential Index K/1: K/1 = ras^K transformed NRKE cells, compared with normal NRKE cells
[3] = test system: Prostate Cancer cell lines; assay: NCI in vitro anticancer screen (SRB), prostate cancer subpanel; settings: 48 hours exposure; average percent growth over the cell lines
Protocol: as §1, §2, §3, §4

HIV-RT = HIV-RT (Human immunodeficiency virus type 1 group M subtype B, UniProt P03366); assay: HIV-RT inhibition by AZT-TP, lavendamycin analogs and their combinations; format: biochemical; design: unit of the concentration uncertain; settings: AZT-TP Conc. 0 (unit uncertain); for % inh. ave.: average of three trials
Text: AZT-TP was used for these in vitro studies since AZT is naturally phosphorylated in vivo.
The results of these tests are given in Table XVIII and XIX below, where the percent inhibition of HIV-RT activity is reported for three different trials and then averaged in the seventh column. […] .

[4] = test system: Non-Small Cell Lung Cancer cell lines; assay: NCI in vitro anticancer screen (SRB), non-small cell lung cancer subpanel; settings: 48 hours exposure; average percent growth over the cell lines
[5] = test system: N/4.2-NRKE transformed by the human ras^N gene; settings: for Differential Index N/4.2: N/4.2 = ras^N transformed NRK cells, compared with normal NRKE cells
Colon Cancer cell lines = assay: NCI in vitro anticancer screen (SRB), colon cancer subpanel; settings: 48 hours exposure; average percent growth over the cell lines
Protocol: as §1, §2, §3, §4

Leukemia cell lines = assay: NCI in vitro anticancer screen (SRB), leukemia subpanel; settings: 48 hours exposure; average percent growth over the cell lines
Protocol: as §1, §2, §3, §4
(§5) First, a data sheet is provided which lists, for each cell line, the Mean ODtzero, the Mean ODctrl, the Mean ODtest for each of the five concentrations, the calculated PGs for each concentration, and the response parameters G150, TGI, and LC50.
(§6) Third, mean graphs at each of the principal response parameters (GI50, TGI, and LC50) are provided. […] Since the bar scale is logarithmic, a bar two units to the right implies the compound achieved the response parameter (e.g., GI50) for the cell line at a concentration 1/100 the mean concentration required over all cell lines, and thus the cell line is unusually sensitive to that compound. Bars extending to the left correspondingly imply sensitivity less than the mean. Thus, the mean graphs facilitate visual scanning of data for potential patterns of selectivity for particular cell lines or for particular subpanels with respect to a selected response parameter.

[6] = test system: 3LL = Lewis Lung Carcinoma Cells; settings: for Differential Index 3LL: 3LL = Lewis lung carcinoma cells, compared with normal NRKE cells
Melanoma cell lines = assay: NCI in vitro anticancer screen (SRB), melanoma subpanel; settings: 48 hours exposure; average percent growth over the cell lines
CNS Cancer cell lines = assay: NCI in vitro anticancer screen (SRB), CNS cancer subpanel; settings: 48 hours exposure; average percent growth over the cell lines
Protocol: as §1, §2, §3, §4, §5, §6

[7] = test system: Ovarian Cancer cell lines; assay: NCI in vitro anticancer screen (SRB), ovarian cancer subpanel; settings: 48 hours exposure; average percent growth over the cell lines
Protocol: as §1, §2, §3, §4

[8] = test system: normal rat kidney epithelial (NRKE) cells
[9] = test system: H/1.2 = ras^H Transformed NRKE Cells; settings: for Differential Index H/1.2: H/1.2 = ras^H transformed NRKE cells, compared with normal NRKE cells
Renal Cancer cell lines = assay: NCI in vitro anticancer screen (SRB), renal cancer subpanel
Protocol: as §1, §2, §3, §4, §5, §6

[10] = test system: H/1.2 = ras^H Transformed NRKE Cells; assay: cells; settings: Rattus norvegicus, read-out: LC50 H/1.2
[11] = test system: 3LL = Lewis Lung Carcinoma Cells; assay: cells; settings: Mus musculus
[12] = test system: N/4.2-NRKE transformed by the human ras^N gene; assay: cells; settings: N42, read-out: LC50 N/4.2
in vitro = settings: rat, LC50 NRKE
[13] = test system: K/1 = ras^K Transformed NRKE Cells; assay: cells; settings: Rattus norvegicus, read-out: LC50 K/1

COC1=C(N)C(=O)c2nc(-c3nc(C(=O)O)c(C)c(-c4ccc(OC)cc4O)c3N)ccc2C1=O [10′-Desmethoxystreptonigrin, 10′-desmethoxystreptonigrin]
activity relative to streptonigrin in an assay for the inhibition of the farnesylation of ras oncogene p21 protein (ras oncogene p21 protein): three times more active than streptonigrin

Cc1c(C(=O)O)nc(-c2ccc3c(n2)C(=O)C(N)=CC3=O)c2[nH]c3ccccc3c12 [lavendamycin, Lavendamycin]
dose that is lethal [1]: 100 mg/kg/day

CC(=O)NC1=CC(=O)c2ccc(-c3nc(C(N)=O)cc4c3[nH]c3ccccc34)nc2C1=O [Compound 16]
Activity (Average PG for highest dose tested) Breast Cancer (Breast Cancer cell lines): −45.1% | CC50 [2]: 350 nM | Differential Index K/1 [2]: 2.57 | Activity (Average PG for highest dose tested) Prostate Cancer [3]: −18.0% | % inh. Trial 1 (HIV-RT; LA Conc. 3.0 (unit uncertain)): 0% | % inh. Trial 2 (HIV-RT; LA Conc. 3.0 (unit uncertain)): 3% | % inh. Trial 3 (HIV-RT; LA Conc. 3.0 (unit uncertain)): 12% | % inh. ave. (HIV-RT; LA Conc. 3.0 (unit uncertain)): 5.0% | % inh. Trial 1 (HIV-RT; LA Conc. 6.0 (unit uncertain)): 26% | % inh. Trial 2 (HIV-RT; LA Conc. 6.0 (unit uncertain)): 33% | % inh. Trial 3 (HIV-RT; LA Conc. 6.0 (unit uncertain)): 30% | % inh. ave. (HIV-RT; LA Conc. 6.0 (unit uncertain)): 29.7% | % inh. Trial 1 (HIV-RT; LA Conc. .5 (unit uncertain)): 0% | % inh. Trial 2 (HIV-RT; LA Conc. .5 (unit uncertain)): 0% | % inh. Trial 3 (HIV-RT; LA Conc. .5 (unit uncertain)): 0% | % inh. ave. (HIV-RT; LA Conc. .5 (unit uncertain)): 0.0% | Activity (Average PG for highest dose tested) Non-Small Cell Lung Cancer [4]: −52.3% | CC50 [5]: 220 nM | Differential Index N/4.2 [5]: 4.09 | Activity (Average PG for highest dose tested) Colon Cancer (Colon Cancer cell lines): −52.1% | Activity (Average PG for highest dose tested) Leukemia (Leukemia cell lines): −28.3% | CC50 [6]: 210 nM | Differential Index 3LL [6]: 4.29 | Activity (Average PG for highest dose tested) Melanoma (Melanoma cell lines): −78.4% | Activity (Average PG for highest dose tested) CNS Cancer (CNS Cancer cell lines): −60.4% | Activity (Average PG for highest dose tested) Ovarian Cancer [7]: −55.5% | CC50 [8]: 900 nM | CC50 [9]: 230 nM | Differential Index H/1.2 [9]: 3.91 | Activity (Average PG for highest dose tested) Renal Cancer (Renal Cancer cell lines; 48 hours exposure, average percent growth over the cell lines): −72.9% | Selectivity: sensitivity of one of the seven renal cancer cell lines relative to average sensitivity of the fifty-five cell lines (Renal Cancer cell lines; at GI50, TGI and/or LC50, initial screen): One of the seven renal cancer cell lines was about 100 times | selectivity for renal cancer (in words) (Renal Cancer cell lines; repeat cancer screen): did not exhibit the selectivity for renal cancer

CC(=O)NC1=CC(=O)c2ccc(C)nc2C1=O [Compound 27, 7-ACETAMIDO-2-METHYLQUINOLINE-5,8-DIONE]
Differential Index K/1 [2]: 0.3 | Differential Index N/4.2 [5]: 0.8 | CC50 ([10]; 120 h): 4400 nM | CC50 [10]: 5000 nM | Differential Index 3LL [6]: 1.8 | CC50 ([11]; 120 h, read-out: LC50 3LL, Table VII, concentration giving 50% cell kill, 5 days exposure): 2000 nM | CC50 ([11]; read-out: LC50 3LL, Table XV (Example 51)): 2600 nM | CC50 [12]: 5700 nM | CC50 at 5 days (in vitro): 2400 nM | CC50 ([13]; 120 h): 5900 nM | CC50 [13]: 14000 nM | CC50 ([8]; rat, 5 days): 4600 nM | Differential Index H/1.2 [9]: 0.9
